# Laboratory results from US20210214758A1, “METHODS AND TOOLS FOR DETERMINING CLONAL RELATEDNESS AND PREDICTING CLONAL TRAITS” (priority 2018, published 2021).
# Test system: Klebsiella isolates
# Experiment: Antibiotic susceptibility of Klebsiella clinical isolates per 7-SNP clonotype (Lookup Table 1; disk diffusion)
# Type: cell-based, Klebsiella spp.
# Description: In further embodiments, the Lookup Table is Lookup Table 1. The information contained in Lookup Table 1 below was obtained from urine specimens from patients with Klebsiella infections from several clinics within different regions of the United States. CT=clonotypes determined using a 7-SNP combination: phoE54; rpoB130; infB279; mdh315; phoE336; phoE354; and mdh429.
# Next, antibiotic resistance was determined for all 387 Klebsiella isolates in the discovery set. Antibiotic testing was carried out according to the standard disk diffusion method as described in the Clinical and Laboratory Standards Institute (M100 Performance Standards for Antimicrobial Susceptibility Testing, 27th Edition, 2017). […] Since almost all Klebsiella isolates are known to be resistant to AMP and sensitive to IMI, TET is not used for treatment of urinary tract infections, and ESBL production is partially reflected in resistance to CTR, these antibiotics were not included for further analysis.
# To aid in clinical decision-making and to translate clonotype information to treatment selection, Lookup Table 1 was generated. […] The information contained in Lookup Table 1 was obtained from urine specimens from patients with Klebsiella infections from several clinics within different regions of the United States. Indications of allowance or non-recommendation were determined based on a 20% resistance threshold to the indicated antibiotic; i.e., the antibiotic is recommended when more than 80% of the tested isolates within the indicated clonotype were susceptible to the indicated antibiotic, and was cautioned against when less than 80% of the isolates were susceptible to the antibiotic.
substance,measurement,setting,value
amoxicillin/clavulanate [AMC],"susceptibility, %",CT 000,92%
same,"susceptibility, %",CT 001,100%
same,"susceptibility, %",CT 010,100%
same,"susceptibility, %",CT 011,91%
same,"susceptibility, %",CT 031,67%
same,"susceptibility, %",CT 040,75%
same,"susceptibility, %",CT 050,90%
same,"susceptibility, %",CT 051,90%
same,"susceptibility, %",CT 071,80%
same,"susceptibility, %",CT 100,86%
same,"susceptibility, %",CT 110,100%
same,"susceptibility, %",CT 111,90%
same,"susceptibility, %",CT 130,98%
same,"susceptibility, %",CT 131,69%
same,"susceptibility, %",CT 141,100%
same,"susceptibility, %",CT 150,87%
same,"susceptibility, %",CT 151,78%
same,"susceptibility, %",CT 160,100%
same,"susceptibility, %",CT 170,96%
same,"susceptibility, %",CT 171,92%
same,"susceptibility, %",CT 200,69%
same,"susceptibility, %",CT 201,89%
same,"susceptibility, %",CT 210,71%
same,"susceptibility, %",CT 211,90%
same,"susceptibility, %",CT 230,100%
same,"susceptibility, %",CT 231,100%
same,"susceptibility, %",CT 240,0%
same,"susceptibility, %",CT 241,100%
same,"susceptibility, %",CT 250,100%
same,"susceptibility, %",CT 251,93%
same,"susceptibility, %",CT 271,96%
same,"susceptibility, %",CT 300,100%
same,"susceptibility, %",CT 301,96%
same,"susceptibility, %",CT 310,80%
same,"susceptibility, %",CT 311,80%
same,"susceptibility, %",CT 330,95%
same,"susceptibility, %",CT 331,86%
same,"susceptibility, %",CT 350,83%
same,"susceptibility, %",CT 351,92%
same,"susceptibility, %",CT 370,100%
same,"susceptibility, %",CT 371,75%
same,"susceptibility, %",CT 411,100%
same,"susceptibility, %",CT 450,100%
same,"susceptibility, %",CT 451,100%
same,"susceptibility, %",CT 510,100%
same,"susceptibility, %",CT 511,100%
same,"susceptibility, %",CT 530,93%
same,"susceptibility, %",CT 531,83%
same,"susceptibility, %",CT 550,86%
same,"susceptibility, %",CT 551,50%
same,"susceptibility, %",CT 570,75%
same,"susceptibility, %",CT 571,100%
same,"susceptibility, %",CT 611,100%
same,"susceptibility, %",CT 630,100%
same,"susceptibility, %",CT 650,91%
same,"susceptibility, %",CT 651,92%
same,"susceptibility, %",CT 670,100%
same,"susceptibility, %",CT 710,100%
same,"susceptibility, %",CT 730,60%
same,"susceptibility, %",CT 731,98%
same,"susceptibility, %",CT 750,95%
same,"susceptibility, %",CT 751,100%
same,"susceptibility, %",CT 771,100%
same,"susceptibility, %",CT Any Klebsiella spp.,87%
trimethoprim/sulfamethoxazole [TS],"susceptibility, %",CT 000,87%
same,"susceptibility, %",CT 001,100%
same,"susceptibility, %",CT 010,100%
same,"susceptibility, %",CT 011,91%
same,"susceptibility, %",CT 031,67%
same,"susceptibility, %",CT 040,25%
same,"susceptibility, %",CT 050,86%
same,"susceptibility, %",CT 051,85%
same,"susceptibility, %",CT 071,60%
same,"susceptibility, %",CT 100,100%
same,"susceptibility, %",CT 110,100%
same,"susceptibility, %",CT 111,90%
same,"susceptibility, %",CT 130,92%
same,"susceptibility, %",CT 131,72%
same,"susceptibility, %",CT 141,100%
same,"susceptibility, %",CT 150,73%
same,"susceptibility, %",CT 151,65%
same,"susceptibility, %",CT 160,0%
same,"susceptibility, %",CT 170,83%
same,"susceptibility, %",CT 171,92%
same,"susceptibility, %",CT 200,77%
same,"susceptibility, %",CT 201,79%
same,"susceptibility, %",CT 210,95%
same,"susceptibility, %",CT 211,91%
same,"susceptibility, %",CT 230,100%
same,"susceptibility, %",CT 231,100%
same,"susceptibility, %",CT 240,100%
same,"susceptibility, %",CT 241,100%
same,"susceptibility, %",CT 250,80%
same,"susceptibility, %",CT 251,80%
same,"susceptibility, %",CT 271,75%
same,"susceptibility, %",CT 300,0%
same,"susceptibility, %",CT 301,76%
same,"susceptibility, %",CT 310,100%
same,"susceptibility, %",CT 311,65%
same,"susceptibility, %",CT 330,55%
same,"susceptibility, %",CT 331,76%
same,"susceptibility, %",CT 350,74%
same,"susceptibility, %",CT 351,84%
same,"susceptibility, %",CT 370,75%
same,"susceptibility, %",CT 371,100%
same,"susceptibility, %",CT 411,100%
same,"susceptibility, %",CT 450,83%
same,"susceptibility, %",CT 451,100%
same,"susceptibility, %",CT 510,100%
same,"susceptibility, %",CT 511,0%
same,"susceptibility, %",CT 530,45%
same,"susceptibility, %",CT 531,67%
same,"susceptibility, %",CT 550,79%
same,"susceptibility, %",CT 551,52%
same,"susceptibility, %",CT 570,75%
same,"susceptibility, %",CT 571,100%
same,"susceptibility, %",CT 611,100%
same,"susceptibility, %",CT 630,100%
same,"susceptibility, %",CT 650,83%
same,"susceptibility, %",CT 651,85%
same,"susceptibility, %",CT 670,100%
same,"susceptibility, %",CT 710,67%
same,"susceptibility, %",CT 730,45%
same,"susceptibility, %",CT 731,82%
same,"susceptibility, %",CT 750,65%
same,"susceptibility, %",CT 751,100%
same,"susceptibility, %",CT 771,86%
same,"susceptibility, %",CT Any Klebsiella spp.,80%
